# According to PMC11714206, “Massively Parallel Screening of Toll/Interleukin‐1 Receptor (TIR)‐Derived Peptides Reveals Multiple Toll‐Like Receptors (TLRs)‐Targeting Immunomodulatory Peptides” (Advanced Science, 2024):
# Biological target: T1, MAL^TIR (Homo sapiens, UniProt P58753)
# T1 construct: MAL (residues 79–221); 6xHis; made in house; host or cells: E. coli BL21 (DE3)
# Assay: T‐Surf phage library (P8 and P3) selection against MAL^TIR, four rounds, NGS read counts
# Format: binding
# Settings: for P8_MAL Rank (after) / P8_MAL Rank (before): P8 library; for P3_MAL Rank (after) / P3_MAL Rank (before): P3 library; for Population: 4th round of selection against MAL TIR, share of NGS reads
# Experimental: T‐Surf libraries were screened against the immobilized TIR domains of two major human TLR adaptor proteins, MAL^TIR and MyD88^TIR, allowing cross‐species selection of TIR‐binding motifs with 190 946 TIR‐derived peptides in a single binding assay (Scheme 1). Enriched phage pools from the fourth round of selection were analyzed using NGS after barcoding the peptide‐coding regions of the phage pools.
# Phage display screening was performed by coating two wells of a 96‐well plate (Maxisorp, Thermo Fisher Scientific) with 100 µL of 5 µg mL^−1 TIR domains overnight; then, the coated wells were blocked with 200 µL of blocking buffer (0.2% BSA in PBS) and set aside for 1 h at 4 °C with gentle shaking. Next, 100 µL of the phage library was added to the wells and incubated for 1 h at room temperature (RT; 20 – 22 °C) with gentle shaking. The plate was washed four times with PBS containing 0.5% Tween‐20; the bound phages were eluted by adding 100 µL of 100 mM HCl to each well. The elute was neutralized with 10 µL of 1.0 M Tris‐HCl (pH 11.0). E. coli TG1 cells were grown to the log phase (A600 = ≈0.6), and 1 mL of the culture was incubated with 100 µL of the eluted phages for 30 min at 37 °C, with shaking at 200 rpm. Next, 1 µL of M13KO7 helper phages was added, followed by incubation for 45 min at 37 °C, with shaking. Subsequently, the cells were transferred to 25 mL of 2× yeast extract tryptone/carbenicillin/kanamycin medium and incubated overnight at 37 °C with shaking at 200 rpm. The amplified phages were precipitated with 20% PEG‐8000/2.5 M NaCl to be used for the next round of selection.
# The naïve T‐Surf libraries in P8 and P3 and the enriched phage pools after four rounds were barcoded for NGS as previously described.^[ [59] ^] Briefly, 5 µL of the phage pool was used as a template for 20 cycles of a 50 µL PCR reaction using […] each of forward and reverse barcoded primers and PrimeSTAR Max DNA Polymerase. The PCR products were purified using Expin Gel SV (GeneAll). The NGS samples were quantified using qPCR, following the qPCR Quantification Protocol Guide (KAPA Library Quantification kits for Illumina Sequencing Platform), and qualified using the TapeStation High Sensitivity D1000 ScreenTape (Agilent Technologies). The indexed libraries were further sequenced by Macrogen (Seoul, Republic of Korea) using the NovaSeq platform (Illumina) with 100 bp paired‐end reads. The reads were demultiplexed by barcodes and filtered for an average Phred quality score of at least 30, followed by trimming the flanking consensus sequences using Cutadapt (version 2.3). Peptide sequence populations were analyzed according to the read counts.
# [1] = selection against MAL, rank by count after grouping
# [2] = selection against MAL, rank by count before grouping
# [3] = selection against MAL TIR, rank by count after grouping
# [4] = selection against MAL TIR, rank by count before grouping
# [5] = 4R selection against MAL, rank after grouping
# [6] = 4R selection against MAL, rank before grouping
# [7] = P8_MAL: rank by count after grouping
# [8] = P8_MAL: rank by count before grouping
# [9] = P3_MAL: rank by count after grouping
# [10] = P3_MAL: rank by count before grouping
# [11] = P3_MAL pool: P3 T-Surf phage library
# [12] = selection against MAL, rank after grouping
# [13] = selection against MAL, rank before grouping
# [14] = P8_MAL pool: P8 T-Surf phage library
# T1 sequence (P58753 79-221): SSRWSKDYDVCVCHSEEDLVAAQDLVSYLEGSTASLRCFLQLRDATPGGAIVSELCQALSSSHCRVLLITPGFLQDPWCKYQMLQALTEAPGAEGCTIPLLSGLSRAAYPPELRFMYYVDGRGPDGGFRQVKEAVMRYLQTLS
sequence,measurement,setting,value
KLIQGWFLYRLMQIEQ,P8_MAL Rank (after),[1],707
same,P8_MAL Rank (before),[2],2749
QLIQPWMELHLHQLHL,P8_MAL Rank (after),[3],246
same,P8_MAL Rank (before),[4],2346
TFLRHLYNALVQAGLH,P8_MAL Rank (after),[3],245
same,P8_MAL Rank (before),[4],2627
LQNQWKLALTKVAHLL,P3_MAL Rank (after),[3],219
same,P3_MAL Rank (before),[4],2152
RGFLYQAFAREGFKIFM,P3_MAL Rank (after),[5],581
same,P3_MAL Rank (before),[6],2353
TFLGPLLNALVQAGIH,Rank (after),[7],388
same,Rank (before),[8],2536
PNLRTKVLNYLFRTNT,P3_MAL Rank (after),[3],237
same,P3_MAL Rank (before),[4],2711
HFFWVKLKSILGETSL,P8_MAL Rank (after),[5],592
same,P8_MAL Rank (before),[6],2396
NQCHNAITADMNQTRL,Rank (after),[9],402
same,Rank (before),[10],3424
YFWHALKNALAVNNDV,Population,[11],0.056%
same,Rank (after),[9],97
same,Rank (before),[10],97
WFLFTVRSAIYSISRA,P8_MAL Rank (after),[1],692
same,P8_MAL Rank (before),[2],1346
YAFTGHLHRYLVQRDM,Rank (after),[9],391
same,Rank (before),[10],1403
RNFGNSCVPCWANRR,Rank (after),[7],392
same,Rank (before),[8],2239
WFLSAFLIPMAQLADT,Rank (after),[7],412
same,Rank (before),[8],1352
RNLGAYLFQALANKGI,P8_MAL Rank (after),[3],254
same,P8_MAL Rank (before),[4],2246
EWILDTEARIWGWRQA,Rank (after),[9],452
same,Rank (before),[10],1992
DSHSSRFKEDAELGGQ,P3_MAL Rank (after),[1],687
same,P3_MAL Rank (before),[2],1963
HQSFWARTWAALIAPS,P3_MAL Rank (after),[1],724
same,P3_MAL Rank (before),[2],2849
AFFLGTAAYRAGQTDD,P8_MAL Rank (after),[3],198
same,P8_MAL Rank (before),[4],802
SSFREGLWRLLELSNE,Rank (after),[9],153
same,Rank (before),[10],1027
RKGDLISDELLIAIEE,P8_MAL Rank (after),[12],575
same,P8_MAL Rank (before),[13],2300
GRYGELFMTETDVREG,Rank (after),[9],403
same,Rank (before),[10],1763
YAFTGHLHRYLVQRGEP,Rank (after),[9],443
same,Rank (before),[10],1397
RYIMPHPQELIQKNS,Rank (after),[9],389
same,Rank (before),[10],2337
WFLLKFRTVLAHVNDV,P8_MAL Rank (after),[12],511
same,P8_MAL Rank (before),[13],1354
SEFIQKIILWLNTKIV,P8_MAL Rank (after),[3],203
same,P8_MAL Rank (before),[4],2461
NQCTDALTAAVVLSGW,P3_MAL Rank (after),[12],528
same,P3_MAL Rank (before),[13],3330
HPKGSYREALAEHEKR,P3_MAL Rank (after),[12],503
same,P3_MAL Rank (before),[13],2809
LLFWGSLKQLLRSDGR,Rank (after),[7],111
same,Rank (before),[8],2159
HLLKEFGKKLITAFKN,P3_MAL Rank (after),[5],646
same,P3_MAL Rank (before),[6],2779
VLQKFISHLYDFLARK,P3_MAL Rank (after),[3],262
same,P3_MAL Rank (before),[4],761
HLLKWKEALHQFHSWV,Population,[11],0.00488%
LFLWESLKHLLRSDSL,P8_MAL Rank (after),[1],719
same,P8_MAL Rank (before),[2],2147
AFLYTFLVNLTHPPNF,Rank (after),[7],134
same,Rank (before),[8],1827
VRQNFISHLYDALHRNRI,Rank (after),[9],140
same,Rank (before),[10],406
DSLFWDRLLYSLHVTE,Rank (after),[7],157
same,Rank (before),[8],877
MERVKAFHQRLKTAPI,P3_MAL Rank (after),[3],225
same,P3_MAL Rank (before),[4],2932
PNLRTKLLNYLIRTKT,P3_MAL Rank (after),[3],280
same,P3_MAL Rank (before),[4],2694
AFFWAQLKSGLGNPTK,Rank (after),[7],186
same,Rank (before),[8],1639
YAFTGHVHRYMVQRGV,P3_MAL Rank (after),[3],229
same,P3_MAL Rank (before),[4],1362
YAFTCHLHRYLVQRGV,Population,[11],0.00413%
AFLYTFLINLTHKPTF,P8_MAL Rank (after),[3],228
same,P8_MAL Rank (before),[4],1866
ALLYTFLIHLTHPTNS,P8_MAL Rank (after),[5],594
same,P8_MAL Rank (before),[6],1929
SSFCEGLWRLLELSTK,P3_MAL Rank (after),[3],234
same,P3_MAL Rank (before),[4],3122
WFLFTFLINLTHPTNF,P8_MAL Rank (after),[12],523
same,P8_MAL Rank (before),[13],1314
ESILTKLRRSSQSIAN,P3_MAL Rank (after),[5],597
same,P3_MAL Rank (before),[6],2045
WFYERLVSLILRDTIV,Population,[14],0.00309%
SLRKNLVRNLIEEFNR,P3_MAL Rank (after),[1],759
same,P3_MAL Rank (before),[2],3094
WFYDRIVSLNGRDKQV,P8_MAL Rank (after),[1],711
same,P8_MAL Rank (before),[2],1142
YAFTGHLHGSLLQRRV,P3_MAL Rank (after),[5],670
same,P3_MAL Rank (before),[6],1376
AVLYTFLINLTHPTNF,Population,[14],0.00402%
YAFTGHLHRYLLQKM,P3_MAL Rank (after),[3],254
same,P3_MAL Rank (before),[4],737
RLLKCTEALHQFHNWV,P3_MAL Rank (after),[12],566
same,P3_MAL Rank (before),[13],2482
LQNQWKLALTQAAN,P3_MAL Rank (after),[3],231
same,P3_MAL Rank (before),[4],827
GWFREGLWRLLELSKK,P3_MAL Rank (after),[3],279
same,P3_MAL Rank (before),[4],1756
DFLNWFIALKSTVLET,P8_MAL Rank (after),[5],598
same,P8_MAL Rank (before),[6],1976
WFYGRLVSLMLRDAKR,P8_MAL Rank (after),[5],595
same,P8_MAL Rank (before),[6],1130
PNLRTKVLHHLMRTKP,Rank (after),[9],405
same,Rank (before),[10],2706
TFLGHLLNALVQTDIL,P8_MAL Rank (after),[12],508
same,P8_MAL Rank (before),[13],2607
SSLREGLLRLQELSKK,P3_MAL Rank (after),[1],713
same,P3_MAL Rank (before),[2],3205
GFFERLVRMILRDTKV,P8_MAL Rank (after),[3],263
same,P8_MAL Rank (before),[4],1567
YNFISHLYDALHQFHSWV,Rank (after),[9],150
same,Rank (before),[10],523
NQWSNSLTAAANLSGW,Rank (after),[9],186
same,Rank (before),[10],3419
CFYEGQLFLALADKSI,P8_MAL Rank (after),[3],284
same,P8_MAL Rank (before),[4],1106
KLFWEKLKLFLPSLSR,P8_MAL Rank (after),[5],657
same,P8_MAL Rank (before),[6],2687
WFYERLLSLILRDTKV,Population,[14],0.00278%
WFYERLASLILRDTKV,Population,[14],0.0034%
YFLHFLLFSLPATEYI,P8_MAL Rank (after),[5],663
same,P8_MAL Rank (before),[6],1473
IFCISCCLAVRKPSI,P8_MAL Rank (after),[3],241
same,P8_MAL Rank (before),[4],2434
TFLGHLYNTLVQASIF,Rank (after),[7],391
same,Rank (before),[8],2537
VELAQVRKQRDAGEKV,Rank (after),[9],412
same,Rank (before),[10],1644
AFLGTAAYRAGQTDD,Rank (after),[7],430
same,Rank (before),[8],1777
TFLGHLYNALVQTGIP,Rank (after),[7],112
same,Rank (before),[8],2569
DPKLNTGESIAPELLR,P8_MAL Rank (after),[12],493
same,P8_MAL Rank (before),[13],1991
YAFTGYLHRYLVQRGV,Population,[11],0.00827%
WFYERLVKLVLRDTKV,Rank (after),[7],166
same,Rank (before),[8],1244
LFYGRMVSLILRDTNV,P8_MAL Rank (after),[5],639
same,P8_MAL Rank (before),[6],1100
ELDFSHFWLFDGEAGGEP,P8_MAL Rank (after),[12],569
same,P8_MAL Rank (before),[13],2048
WFYESLVSMIMRDTKV,P8_MAL Rank (after),[3],213
same,P8_MAL Rank (before),[4],1303
NQWRNALTAAANLSDR,P3_MAL Rank (after),[3],282
same,P3_MAL Rank (before),[4],3379
YAFTGHLHHYLVQRGV,Population,[11],0.00564%
SLRKKLVRNLIEEFKR,P3_MAL Rank (after),[1],688
same,P3_MAL Rank (before),[2],3100
LELGDPYFWSKLRYAM,Rank (after),[9],453
same,Rank (before),[10],2129
AFLYTFLINLTHPTKV,P8_MAL Rank (after),[12],514
same,P8_MAL Rank (before),[13],1851
AFLYTFLINLTHQTNF,Population,[14],0.0034%
